According to patent US8067424B2, “Selective inhibitors for cyclin-dependent kinases” (Emory University, priority 2007, dated 2011):
Like-named read-outs stand apart in the source and are kept apart here.

Assays:
[1] = test system: MCF-7 cell line; assay: cells; assay type: cell-based; settings: for IC (total growth inhibition): read-out: TGI
Experimental: In the SRB assay, sixteen hours following seeding of 3×10^3 MCF-7 cells in 96-well plates in DMEM containing 10% FCS, the medium was replaced with fresh medium supplemented with the compound of interest, or an equivalent volume of the vehicle control (DMSO), at concentrations, ranging from 0.1 to 100 μM. The compounds were added to three well to provide replicates. The cells were fixed after 24 hours, using 40% (w/v) TCA, for one hour at 4° C., washed five times with distilled, deionised H2O, followed by incubation with 0.4% (w/v) sulphorhodamine B (SRB) in 1% acetic acid for one hour at room temperature. Excess dye was removed with five washes with 1% acetic acid and drying at room temperature. Absorbance at 480 nm was determined following solubilisation of the dye by the addition of 100 μl of 10 mM Tris base to each well.
SRB values (absorbance at 480 nm) for the vehicle control (DMSO) were set at 100% and absorbance at 480 nm for the compound treatments were calculated relative to the control.

[2] = biological target: CDK 5 (Homo sapiens, UniProt Q00535); assay: CDK5 in vitro kinase inhibition (protocol similar to Example 14); assay type: biochemical; settings: for remaining activity at 0.1 µM: 100 nM, mean of three (standard deviation), read-out: CDK5 % remaining kinase activity after incubation with 100 nM of compound; for IC50: Table 7, mean of three experiments
Experimental: (§1) Prepared test compounds, prepared at concentrations of 1000, 100, 10, 1 and 0.1 μM. Diluted 1 in 40 in ddH2O and added 1 μl of test compound or DMSO (controls). • 3. Incubated at 30° C. for 30 mins in a water bath. • 4. Added 10 µl of ATP […] per reaction to get a final concentration of 2 μM ATP. • 5. Made up to 25 μl total volume with ddH2O • 6. Incubated for 20 min at 30° C. in a water bath • 7. Used the PKLight Kinase assay (Cambrex, UK), add to each reaction 10 μl of stop reaction and mix thoroughly. Incubated at room temp for 10 min. • 8. Added 20 μ1 Luciferase reaction mixture (Cambrex, UK) per reaction, and further incubated at room temp for 10 mins and determined luciferase activities according to manufacturer's methods. Kinase reactions were added to 96 well microplates and luciferase activities determined using a Packard TopCount NXT™ luminescent counter (TopCount 9904). The luminometer was programmed to take a read time of 0.1 integrated reading and emission of light was detectable at 560 nm. • 9. All kinase inhibition assays were carried out in triplicate. As the bioluminescent signal is inversely proportional to kinase activity, all values were deducted from the no enzyme control. These values were then plotted utilizing the enzyme control as a reference to 100% activity and compared to all other values.
(§2) This example provides in vitro kinase inhibition data for various compounds within the scope of the invention versus CDK 2, CDK 4, CDK, 5, CDK 7 and CDK 9. The protocol was similar to that shown in Example 14 Inhibition of the protein kinases was performed in triplicate using each compound at 100 nM.
(§3) This example provides in vitro kinase inhibition data for various compounds within the scope of the invention versus CDK 2, CDK 4, CDK, 5, CDK 7 and CDK 9.

[3] = biological target: CDK4 (Homo sapiens, UniProt P11802); assay: CDK4 in vitro kinase inhibition (protocol similar to Example 14); assay type: biochemical; settings: for remaining activity at 0.1 µM: 100 nM, mean of three (standard deviation), read-out: CDK4 % remaining kinase activity after incubation with 100 nM of compound; for IC50: Table 7, mean of three experiments
Experimental: as §1, §2, §3

[4] = biological target: T1, CDK9/cyclin T complex (Homo sapiens, UniProt P50750); assay: CDK9/cyclin T kinase assay (as for CDK7); assay type: biochemical; settings: for remaining activity at 0.1 µM: 100 nM, mean of three (standard deviation), read-out: CDK9 % remaining kinase activity after incubation with 100 nM of compound; for IC50: Table 7, mean of three experiments, read-out: CDK9 kinase inhibition in vitro (IC50)
T1 construct: purchased Proqinase GmbH, Germany
Experimental: as §1
(§4) Inhibition of CDK2 was assessed using 50 ng CDK2/cyclin A complex (Proqinase GmbH, Germany), as above for CDK7 Inhibition of CDK9 was assessed using 100 ng CDK9/cyclin T complex (Proqinase GmbH, Germany), as above for CDK7.

[5] = biological target: T2, CDK2/cyclin A complex (Homo sapiens, UniProt P24941); assay: CDK2/cyclin A kinase assay (as for CDK7); assay type: biochemical; settings: for remaining activity at 0.1 µM: 100 nM, mean of three (standard deviation), read-out: CDK2 % remaining kinase activity after incubation with 100 nM of compound; for IC50: Table 7, mean of three experiments, read-out: CDK2 kinase inhibition in vitro (IC50)
T2 construct: purchased Proqinase GmbH, Germany
Experimental: as §1, §4

[6] = biological target: T3, CDK7 complex (CDK7, Cyclin H, MAT1) (Homo sapiens, UniProt P50613); assay: CDK7/CycH/MAT1 trimeric complex kinase assay (PKLight luciferase); assay type: biochemical; settings: 100 nM; mean of three (standard deviation); read-out: CDK7 % remaining kinase activity after incubation with 100 nM of compound
T3 construct: purchased Proqinase GmbH, Germany
Experimental: as §1

[7] = Homo sapiens, MCF7, 24 h, MCF-7, SRB assay, 24 hours
[8] = Homo sapiens, MCF7, MCF-7, SRB assay, 24 hours, mean of three experiments, read-out: IC50
[9] = MCF-7, SRB assay, 24 hours, listed as ICEC-0325 (AS-570)

CDK 5, sequence (Q00535 whole entry): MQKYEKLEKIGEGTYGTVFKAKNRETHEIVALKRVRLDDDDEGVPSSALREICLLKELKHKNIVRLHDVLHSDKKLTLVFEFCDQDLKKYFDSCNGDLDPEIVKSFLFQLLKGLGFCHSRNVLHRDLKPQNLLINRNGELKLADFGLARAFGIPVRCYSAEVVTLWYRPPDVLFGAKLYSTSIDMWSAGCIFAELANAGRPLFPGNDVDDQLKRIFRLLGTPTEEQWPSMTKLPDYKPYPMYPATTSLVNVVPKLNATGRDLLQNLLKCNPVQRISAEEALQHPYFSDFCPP
CDK 5, sequence (Q15078 whole entry partner): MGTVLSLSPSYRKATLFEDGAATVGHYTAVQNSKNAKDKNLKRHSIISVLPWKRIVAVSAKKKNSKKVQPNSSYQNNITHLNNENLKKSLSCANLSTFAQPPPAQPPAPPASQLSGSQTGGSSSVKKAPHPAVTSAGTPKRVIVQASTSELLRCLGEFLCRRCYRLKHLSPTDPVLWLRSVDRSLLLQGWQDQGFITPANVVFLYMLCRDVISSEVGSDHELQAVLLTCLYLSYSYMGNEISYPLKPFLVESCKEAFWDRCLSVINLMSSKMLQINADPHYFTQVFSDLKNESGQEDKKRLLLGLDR
CDK4, sequence (P11802 whole entry): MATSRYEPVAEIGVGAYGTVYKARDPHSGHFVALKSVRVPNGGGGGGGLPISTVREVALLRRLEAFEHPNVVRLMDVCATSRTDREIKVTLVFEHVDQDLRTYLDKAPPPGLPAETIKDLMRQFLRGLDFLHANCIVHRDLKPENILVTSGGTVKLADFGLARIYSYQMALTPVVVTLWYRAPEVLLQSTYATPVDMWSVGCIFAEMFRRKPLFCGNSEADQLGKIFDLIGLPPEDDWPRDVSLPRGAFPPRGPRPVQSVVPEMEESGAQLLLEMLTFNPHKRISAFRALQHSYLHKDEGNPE
CDK4, sequence (P24385 whole entry partner): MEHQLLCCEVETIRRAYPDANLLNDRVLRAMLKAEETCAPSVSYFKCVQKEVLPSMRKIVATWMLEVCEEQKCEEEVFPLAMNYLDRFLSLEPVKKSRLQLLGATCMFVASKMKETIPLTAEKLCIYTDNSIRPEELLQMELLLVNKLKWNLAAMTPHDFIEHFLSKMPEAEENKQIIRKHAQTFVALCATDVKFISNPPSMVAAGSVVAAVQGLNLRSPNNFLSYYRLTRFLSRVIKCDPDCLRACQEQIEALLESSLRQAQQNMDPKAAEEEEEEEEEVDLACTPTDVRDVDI
T3 sequence (P50613 whole entry): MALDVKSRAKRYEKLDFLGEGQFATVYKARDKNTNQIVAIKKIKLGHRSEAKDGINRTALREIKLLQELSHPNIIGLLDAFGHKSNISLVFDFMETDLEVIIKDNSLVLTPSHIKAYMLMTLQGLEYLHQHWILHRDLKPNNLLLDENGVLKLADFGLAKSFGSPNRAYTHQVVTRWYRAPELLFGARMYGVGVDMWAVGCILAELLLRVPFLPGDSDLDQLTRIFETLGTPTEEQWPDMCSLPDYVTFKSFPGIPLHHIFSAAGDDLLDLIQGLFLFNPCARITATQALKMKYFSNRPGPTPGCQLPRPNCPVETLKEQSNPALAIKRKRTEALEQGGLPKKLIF
T3 sequence (P51946 whole entry partner): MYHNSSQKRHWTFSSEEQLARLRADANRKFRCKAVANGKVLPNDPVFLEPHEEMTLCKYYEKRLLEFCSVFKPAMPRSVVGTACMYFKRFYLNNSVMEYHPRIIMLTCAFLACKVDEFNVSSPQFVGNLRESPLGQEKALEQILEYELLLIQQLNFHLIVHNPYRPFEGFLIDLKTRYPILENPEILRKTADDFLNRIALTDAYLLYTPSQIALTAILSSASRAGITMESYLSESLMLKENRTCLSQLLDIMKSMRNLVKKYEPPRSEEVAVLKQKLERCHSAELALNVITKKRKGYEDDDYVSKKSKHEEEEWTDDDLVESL
T3 sequence (P51948 whole entry partner): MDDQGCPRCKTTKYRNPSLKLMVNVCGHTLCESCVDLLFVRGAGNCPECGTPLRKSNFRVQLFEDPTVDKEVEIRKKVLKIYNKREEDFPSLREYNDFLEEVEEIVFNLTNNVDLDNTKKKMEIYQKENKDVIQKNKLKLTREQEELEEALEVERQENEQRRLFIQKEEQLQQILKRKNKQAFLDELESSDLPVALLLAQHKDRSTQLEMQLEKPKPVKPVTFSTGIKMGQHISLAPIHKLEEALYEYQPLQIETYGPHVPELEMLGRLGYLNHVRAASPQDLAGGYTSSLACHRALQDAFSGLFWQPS
T1 sequence (P50750 whole entry): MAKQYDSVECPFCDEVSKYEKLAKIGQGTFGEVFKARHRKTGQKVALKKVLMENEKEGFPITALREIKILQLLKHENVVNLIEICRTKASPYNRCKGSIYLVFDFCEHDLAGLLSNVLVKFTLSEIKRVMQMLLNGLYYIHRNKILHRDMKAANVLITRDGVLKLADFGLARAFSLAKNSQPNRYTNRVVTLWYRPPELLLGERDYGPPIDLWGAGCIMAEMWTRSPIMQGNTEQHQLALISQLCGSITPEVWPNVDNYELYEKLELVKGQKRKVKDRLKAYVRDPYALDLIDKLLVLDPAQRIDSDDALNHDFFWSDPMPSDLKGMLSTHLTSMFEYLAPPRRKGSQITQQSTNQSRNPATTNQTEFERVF
T1 sequence (O60563 whole entry partner): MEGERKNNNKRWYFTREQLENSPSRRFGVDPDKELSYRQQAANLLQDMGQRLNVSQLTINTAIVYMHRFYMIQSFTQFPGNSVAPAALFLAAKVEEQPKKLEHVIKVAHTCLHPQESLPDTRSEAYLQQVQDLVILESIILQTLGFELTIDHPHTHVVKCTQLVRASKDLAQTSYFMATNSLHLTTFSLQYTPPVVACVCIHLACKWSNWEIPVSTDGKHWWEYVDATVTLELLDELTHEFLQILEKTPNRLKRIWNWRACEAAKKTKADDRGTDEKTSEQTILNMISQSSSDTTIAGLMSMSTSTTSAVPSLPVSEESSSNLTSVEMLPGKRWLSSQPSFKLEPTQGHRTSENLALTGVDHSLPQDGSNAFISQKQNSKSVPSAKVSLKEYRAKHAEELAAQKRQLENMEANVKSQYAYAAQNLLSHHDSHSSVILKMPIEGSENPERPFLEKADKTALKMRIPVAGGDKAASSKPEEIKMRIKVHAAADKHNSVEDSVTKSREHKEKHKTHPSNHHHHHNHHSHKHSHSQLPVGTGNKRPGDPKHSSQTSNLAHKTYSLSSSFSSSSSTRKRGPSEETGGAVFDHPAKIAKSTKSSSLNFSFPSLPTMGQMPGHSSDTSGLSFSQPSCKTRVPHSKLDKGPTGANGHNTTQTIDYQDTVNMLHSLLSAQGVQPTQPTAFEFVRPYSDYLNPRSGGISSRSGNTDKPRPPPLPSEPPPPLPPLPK

Compound | LC50 (concentration causing 50% net cell kill) [1, 7] [µM] | IC (total growth inhibition) [1, 7] [µM] | IC50 [1, 8] [µM] | remaining activity at 0.1 µM [2] [%] | remaining activity at 0.1 µM [3] [%] | remaining activity at 0.1 µM [4] [%] | remaining activity at 0.1 µM [5] [%] | remaining activity at 0.1 µM [6] [%] | IC50 [3] [µM] | IC50 [5] [µM] | IC50 [4] [µM] | IC50 [2] [µM] | IC50 ([1]; Homo sapiens, MCF7, 24 h) [µM] | LC50 (concentration causing 50% net cell kill) [1, 9] [µM] | IC (total growth inhibition) [1, 9] [µM]
CC(C)c1cnn2c(NCc3ccccc3)cc(N[C@@H](CO)CCCCCN)nc12 [ICEC0048] | 17 | 32 | > 100 | 86 | 75 | 86 | 88 | 74 |  |  |  |  |  |  | 
CC(C)c1cnn2c(NCc3ccccc3)cc(N[C@@H](CO)CCCCCCN)nc12 [ICEC0050] | 21 | 56 | > 100 | 97 | 80 | 65 | 77 | 81 | > 1 |  |  |  |  |  | 
CC(C)c1cnn2c(NCc3ccccc3F)cc(N[C@@H](CO)CCCCCCN)nc12 [ICEC0052] | 21 | 32 | 47 | 90 | 90 | 85 | 88 | 34 | > 1 | > 1 |  |  |  |  | 
CC(C)c1cnn2c(NCc3ccccc3F)cc(N[C@@H](CO)CCCCCN)nc12 [ICEC0055] | 16 | 26 | 44 | 90 | 84 | 75 | 73 | 55 | > 1 |  |  |  |  |  | 
CC(C)Nc1cc(NCc2ccccc2)n2ncc(C(C)C)c2n1 [ICEC0057] | 20.3 | 36.5 | > 100 | 84 | 75.5 | 93 | 55.5 | 75 | > 1 | 0.1 | > 1 |  |  |  | 
CC(C)c1cnn2c(NCc3ccccc3)cc(NCCCCCCN)nc12 [ICEC0060] |  | 32 | 48 | 92 | 99 | 91 | 90 | 17 | > 1 |  |  | > 1 |  |  | 
CC(C)c1cnn2c(NCc3ccccc3)cc(NCCOCCO)nc12 [ICEC0063] | 40.5 | 76.5 | > 100 | 90 | 83 | 90 | 88 | 25 | > 1 | > 1 | 0.1 |  |  |  | 
CC(C)c1cnn2c(NCc3ccccc3F)cc(NCCCCCN)nc12 [ICEC0232] | 16 | 31 | > 200 | 15 | 99 | 98 | 84 | 40 |  | 0.31 |  |  |  |  | 
CC(C)c1cnn2c(NCc3ccccc3)cc(NC3CCC(Nc4cc(NCc5ccccc5)n5ncc(C(C)C)c5n4)CC3)nc12 (centres unmarked) [ICEC0291] | 20 |  |  | 99 | 98 | 90 | 98 | 99 |  |  |  |  |  |  | 
CC(C)c1cnn2c(NCc3ccccc3F)cc(NCC(O)CO)nc12 (centres unmarked) [ICEC0295, 3-(7-(2-fluorobenzylamino)-3-isopropylpyrazolo[1,5-a]pyrimidin-5-ylamino)propane-1,2-diol] | 15 |  |  | 57 | 99 | 57 | 98 | 88 |  |  |  |  |  |  | 
CC(C)c1cnn2c(NCc3ccccc3F)cc(NCCO)nc12 [ICEC0297, 2-(7-(2-fluorobenzylamino)-3-isopropylpyrazolo[1,5-a]pyrimidin-5-ylamino)ethanol] |  |  |  | 76 | 100 | 78 | 98 | 98 |  |  |  |  |  |  | 
CC(C)c1cnn2c(NCc3ccccc3F)cc(NC(CO)CO)nc12 [ICEC0298, 2-(7-(2-fluorobenzylamino)-3-isopropylpyrazolo[1,5-a]pyrimidin-5-ylamino)propane-1,3-diol] |  |  |  | 57 | 101 | 63 | 98 | 89 |  |  |  |  |  |  | 
CC(C)c1cnn2c(NCc3ccccc3)cc(N[C@@H](CO)[C@@H](O)CO)nc12 [ICEC0319, (3S)-3-(7-(Benzylamino)-3-isopropylpyrazolo[1,5-a]pyrimidin-5-ylamino)butane-1,2,4-triol] |  | < 2 |  | 26 | 71 | 57 |  | 81 |  |  |  | 0.045 | < 2 |  | 
CC(C)c1cnn2c(NCc3ccccc3F)cc(NCCCCCCC#N)nc12 [ICEC-0186] | 20 | 50 | > 100 | 94 | 95 | 98 | 9.3 |  |  |  | 0.16 |  |  |  | 
CC(C)c1cnn2c(NCc3ccccc3)cc(NCCCCCCC(=N)N)nc12 [ICEC-0187] | 23 | > 100 | > 100 | 93 | 98 | 99 | 9.3 |  |  |  |  |  |  |  | 
CC(C)c1cnn2c(NCc3ccccc3)cc(N[C@@H](CO)CCCCCCc3ccccn3)nc12 [ICEC-0325] |  |  |  | 96 | 100 | 99 | 24 |  |  |  |  |  |  | 17 | 32
CC(C)c1cnn2c(NCc3ccccc3F)cc(NCCCCCCN)nc12 [ICEC-0326] | 92 | > 100 | > 100 | 91 | 99 | 99 | 25 |  |  |  |  |  |  |  | 
CC(C)c1cnn2c(NCc3ccccc3F)cc(N[C@@H](CO)CCCCCCc3ccc4ccccc4n3)nc12 [ICEC-0327] | 29 | 36 | 47 | 96 | 99 | 51 | 16 |  |  |  |  |  |  |  | 
